Reference: publication PMC7826463, “Pamiparib dose escalation in Chinese patients with non‐mucinous high‐grade ovarian cancer or advanced triple‐negative breast cancer” (Cancer Medicine, 2020)
Values joined by “and” are separate entries in the source; they are usually repeats but may differ in a detail not shown here. Identical values can stand only once. “Also recorded” adds a separate entry of the source.

Test system: Chinese patients with advanced HGOC or TNBC
Test: Safety/tolerability (adverse events per NCI-CTCAE v4.03, DLTs) in phase 1 dose escalation (NCT03333915)
Format: in vivo
Description: This phase 1/2, open‐label, multicenter study assessed the safety and antitumor activity of pamiparib in Chinese patients ≥18 years with advanced solid tumors whose disease progressed despite standard therapy or for which there is no standard therapy. Phase 1 was a dose‐escalation study, with a 3 + 3 design, that evaluated the single‐agent safety/tolerability, pharmacokinetic (PK) profile, and preliminary antitumor activity of pamiparib and confirmed the RP2D in Chinese patients (Figure 1). The phase 2 dose‐expansion component of this study is investigating the single‐agent antitumor activity and safety/tolerability of pamiparib.
In phase 1, patients received pamiparib at 20, 40, and 60 mg BID dose levels. The starting dose for pamiparib (20 mg BID) was selected as one‐third of the RP2D (60 mg BID) and one‐fourth of the MTD (80 mg BID), which were determined in the FIH study. […] Safety evaluations, including dose‐limiting toxicities (DLTs), of ≥3 patients completing one cycle of treatment at a specific dose level were required before proceeding to the next cohort with a higher dose level. Patients could continue the study treatment in 21‐day cycles and subsequent cycles at the discretion of the investigator.
The primary objective in phase 1 was to evaluate the safety and tolerability of pamiparib. Safety and tolerability endpoint assessments were based on monitoring of treatment‐emergent adverse events (AEs), in addition to vital signs, electrocardiograms, physical examinations, and clinical laboratory results. The incidence and severity of all AEs and incidence of serious AEs were assessed according to the National Cancer Institute‐Common Terminology Criteria for Adverse Events v4.03.
Approximately 14 to 18 evaluable patients were expected to enroll in the phase 1 part of the study. The safety population included all patients who received ≥1 dose of pamiparib. The PK population included all patients for whom valid pamiparib PK parameters could be estimated. Antitumor activity per RECIST v1.1 was assessed in all evaluable patients. Patients were considered response evaluable if they had measurable disease at baseline per RECIST v1.1 and had ≥1 post‐baseline tumor assessment, unless treatment had been discontinued due to clinical progression or death prior to tumor assessment. The population evaluable for CA‐125 response included patients in the safety population with baseline CA‐125 ≥2 x upper limit of normal.

Structure (SMILES): C[C@]12CCCN1CC1=NNC(=O)c3cc(F)cc4[nH]c2c1c34 [pamiparib, Pamiparib]
- Treatment-related adverse event Decreased white blood cell count, Grade ≥3 (60 mg BID (n = 7)): 2 (28.6) n (%)
- Treatment-related adverse event Diarrhea, All Grades (60 mg BID (n = 7)): 2 (28.6) n (%)
- Treatment-related adverse event Diarrhea, Grade ≥3 (60 mg BID (n = 7)): 0 n (%)
- Treatment-related adverse event Increased GGT, All Grades (60 mg BID (n = 7)): 1 (14.3) n (%)
- Treatment-related adverse event Increased GGT, Grade ≥3 (60 mg BID (n = 7)): 0 n (%)
- Treatment-related adverse event Increased conjugated bilirubin, All Grades (60 mg BID (n = 7)): 2 (28.6) n (%)
- Treatment-related adverse event Increased conjugated bilirubin, Grade ≥3 (60 mg BID (n = 7)): 0 n (%)
- Treatment-related adverse event Nausea, All Grades (60 mg BID (n = 7)): 5 (71.4) n (%)
- Treatment-related adverse event Nausea, Grade ≥3 (60 mg BID (n = 7)): 1 (14.3) n (%)
- Treatment-related adverse event Prolonged electrocardiogram QT, All Grades (60 mg BID (n = 7)): 2 (28.6) n (%)
- Treatment-related adverse event Prolonged electrocardiogram QT, Grade ≥3 (60 mg BID (n = 7)): 0 n (%)
- Treatment-related adverse event Somnolence, All Grades (60 mg BID (n = 7)): 1 (14.3) n (%)
- Treatment-related adverse event Somnolence, Grade ≥3 (60 mg BID (n = 7)): 0 n (%)
- Treatment-related adverse event Tachycardia, All Grades (60 mg BID (n = 7)): 2 (28.6) n (%)
- Treatment-related adverse event Tachycardia, Grade ≥3 (60 mg BID (n = 7)): 0 n (%)
- Treatment-related adverse event Vomiting, All Grades (60 mg BID (n = 7)): 2 (28.6) n (%)
- Treatment-related adverse event Vomiting, Grade ≥3 (60 mg BID (n = 7)): 1 (14.3) n (%)
- Discontinued treatment: Adverse event (60 mg BID (n=7), count (percent)): 2 (28.6)
- Tolerability (20 to 60 mg BID, Chinese patients): generally well tolerated
- Grade 3 TRAE: anemia (N = 15): 2 n
- Grade 4 or 5 TRAEs (N = 15): No grade 4 or 5 TRAEs
- Grade ≥4 AEs (N = 15): no grade ≥4 AEs
- Patients who experienced a serious AE (N = 15): three
- Patients who experienced ≥1 AE considered related to pamiparib (N = 15): 100%
- Serious AE: abdominal infection (N = 15): 1 n
- Serious AE: intestinal obstruction (N = 15): 1 n
- Serious AE: pleural effusion (N = 15): 1 n
- Serious AEs considered related to study treatment (N = 15): none and no DLTs or serious AEs considered related to pamiparib
- Patients who experienced grade ≥3 AEs (N = 15 (10 patients), all causality): 67%
- Patients who experienced ≥1 TRAE of grade 3 severity (N = 15 (six patients)): 40%
- AE of any grade: asthenia (N = 15, all causality): 80%
- AE of any grade: decreased appetite (N = 15, all causality): 60%
- AE of any grade: decreased white blood cell count (N = 15, all causality): 67%
- AE of any grade: nausea (N = 15, all causality): 80%
- Grade ≥3 AE: anemia (N = 15, all causality): 27%
- Grade ≥3 AE: decreased hemoglobin (N = 15, all causality): 20%
- Patients who experienced ≥1 AE of any grade (N = 15, all causality): 15 patients
- Treatment-related AE: asthenia (N = 15, any grade): 80%
- Treatment-related AE: nausea (N = 15, any grade): 80%
- Recommended phase 2 dose (RP2D) confirmed in Chinese patients (PO): 60 mg BID
- Treatment-related adverse event Asthenia, All Grades (Total (N = 15)): 12 n (%) and 12 (80.0) n (%)
- Treatment-related adverse event Asthenia, Grade ≥3 (Total (N = 15)): 0 n (%)
- Treatment-related adverse event Decreased appetite, All Grades (Total (N = 15)): 9 (60.0) n (%)
- Treatment-related adverse event Decreased appetite, Grade ≥3 (Total (N = 15)): 0 n (%)
- Treatment-related adverse event Decreased hemoglobin, All Grades (Total (N = 15)): 6 (40.0) n (%)
- Treatment-related adverse event Decreased hemoglobin, Grade ≥3 (Total (N = 15)): 3 n (%) and 3 (20) n (%)
- Treatment-related adverse event Decreased neutrophil count, All Grades (Total (N = 15)): 8 (53.3) n (%)
- Treatment-related adverse event Decreased neutrophil count, Grade ≥3 (Total (N = 15)): 2 n (%) and 2 (13) n (%)
- Treatment-related adverse event Decreased platelet count, All Grades (Total (N = 15)): 3 (20.0) n (%)
- Treatment-related adverse event Decreased platelet count, Grade ≥3 (Total (N = 15)): 1 n (%) and 1 (7) n (%)
- Treatment-related adverse event Decreased white blood cell count, All Grades (Total (N = 15)): 10 (66.7) n (%)
- Treatment-related adverse event Decreased white blood cell count, Grade ≥3 (Total (N = 15)): 2 n (%) and 2 (13) n (%)
- Treatment-related adverse event Diarrhea, All Grades (Total (N = 15)): 3 (20.0) n (%)
- Treatment-related adverse event Diarrhea, Grade ≥3 (Total (N = 15)): 0 n (%)
- Treatment-related adverse event Increased GGT, All Grades (Total (N = 15)): 3 (20.0) n (%)
- Treatment-related adverse event Increased GGT, Grade ≥3 (Total (N = 15)): 0 n (%)
- Treatment-related adverse event Increased conjugated bilirubin, All Grades (Total (N = 15)): 4 (26.7) n (%)
- Treatment-related adverse event Increased conjugated bilirubin, Grade ≥3 (Total (N = 15)): 0 n (%)
- Treatment-related adverse event Nausea, All Grades (Total (N = 15)): 12 n (%) and 12 (80.0) n (%)
- Treatment-related adverse event Nausea, Grade ≥3 (Total (N = 15)): 1 n (%) and 1 (7) n (%)
- Treatment-related adverse event Prolonged electrocardiogram QT, All Grades (Total (N = 15)): 4 (26.7) n (%)
- Treatment-related adverse event Prolonged electrocardiogram QT, Grade ≥3 (Total (N = 15)): 1 n (%) and 1 (7) n (%)
- Treatment-related adverse event Somnolence, All Grades (Total (N = 15)): 3 (20.0) n (%)
- Treatment-related adverse event Somnolence, Grade ≥3 (Total (N = 15)): 0 n (%)
- Treatment-related adverse event Tachycardia, All Grades (Total (N = 15)): 3 (20.0) n (%)
- Treatment-related adverse event Tachycardia, Grade ≥3 (Total (N = 15)): 0 n (%)
- Treatment-related adverse event Vomiting, All Grades (Total (N = 15)): 4 (26.7) n (%)
- Treatment-related adverse event Vomiting, Grade ≥3 (Total (N = 15)): 1 n (%) and 1 (7) n (%)
- Dose-limiting toxicities (DLTs) (pamiparib dose range 20-60 mg BID, 23-day initial cycle): No dose‐limiting toxicities; also recorded: no DLTs
